# In patent US11413242B2, “Formulations of Tie-2 activators and methods of use thereof” (EyePoint Pharmaceuticals, Inc., priority 2019, dated 2022):
# What was measured:
# [1] = tested on: patients with diabetic macular edema; assay: Change in intraocular pressure from baseline, Compound 1 BID at varying doses, 28 Day EOT (FIG. 1); type: in vivo, human; conditions: doses greater than 15 mg BID
# Description: The difference in IOP was determined at the end of the trial, which was 28 days after treatment began (28 Day EOT). Changes in IOP were determined both in the study eye and the fellow eye.
# [2] = Intraocular pressure at Baseline and Months 1-3, Compound 1 with sham or RBZ, or placebo with RBZ (TABLE 1, FIG. 2); type: in vivo
# Description: The difference in IOP was determined relative to a pre-treatment baseline (Base) at months 1, 2, and 3 (M1-M3). Intraocular pressure was determined in the study eye in millimeters of mercury (mmHg).
# The difference in IOP was determined relative to a pre-treatment Baseline at Months 1, 2, and 3. Intraocular pressure was determined in the study eye/fellow eye in mmHg.
smiles,measurement,setting,value
COC(=O)N[C@@H](Cc1ccccc1)C(=O)N[C@@H](Cc1ccc(NS(=O)(=O)O)cc1)c1csc(-c2cccs2)n1 [Compound 1],effect on intraocular pressure (IOP) relative to pre-treatment baseline,[1],decreased IOP
same,"IOP, fellow eye",[2]; Month 1,14.5 mmHg
same,"IOP, fellow eye",[2]; Month 2,14.3 mmHg
same,"IOP, fellow eye",[2]; Month 3,14.0 mmHg
same,"IOP, fellow eye",[2]; pre-treatment Baseline,15.4 mmHg
same,"IOP, study eye",[2]; Month 1,14.8 mmHg
same,"IOP, study eye",[2]; Month 2,14.4 mmHg
same,"IOP, study eye",[2]; Month 3,14.3 mmHg
same,"IOP, study eye",[2]; pre-treatment Baseline,15.8 mmHg
